Results reported in publication PMC10925992 (Heliyon, 2024).
Structures can show the parent of a compound that is named as a salt.

Columns and labels:
[1] = test system: USP7, MDM2 and c-Myc mRNA in HCT-116 cells; assay: Quantitative gene expression analysis; type: cell-based, human; settings: HCT116, compound at IC50 concentration, 48 h, versus untreated cells
HCT116 cells = assay: MTT anti-proliferation assay; type: cell-based, human; settings: for IC50: Homo sapiens, HCT-116, 48 h; for inhibition of proliferation of cancerous cells: HCT116, MTT, 48 h
[2] = test system: p53 mRNA in HCT-116 cells; assay: Quantitative gene expression analysis; type: cell-based, human; settings: HCT116, compound at IC50 concentration, 48 h, versus untreated cells
[3] = biological target: catalytic domain of USP7 (USP7-CD) (Homo sapiens, UniProt Q93009); assay: STD-NMR titration for dissociation constant; type: binding
Sequence of catalytic domain of USP7 (USP7-CD) (Q93009 208-560): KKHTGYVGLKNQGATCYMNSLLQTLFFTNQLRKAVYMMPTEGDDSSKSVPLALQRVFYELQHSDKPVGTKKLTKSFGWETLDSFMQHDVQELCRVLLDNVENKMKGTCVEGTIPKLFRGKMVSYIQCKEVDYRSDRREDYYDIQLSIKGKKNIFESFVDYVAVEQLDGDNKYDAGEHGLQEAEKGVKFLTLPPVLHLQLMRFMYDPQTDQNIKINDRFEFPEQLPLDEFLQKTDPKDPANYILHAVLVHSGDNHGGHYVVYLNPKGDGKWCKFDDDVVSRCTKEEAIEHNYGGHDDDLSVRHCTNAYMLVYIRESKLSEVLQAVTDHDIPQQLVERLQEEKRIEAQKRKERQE

USP7-CD = USP7-CD (Homo sapiens, UniProt Q93009); assay: Thermal shift assay; settings: decrease of Tm of USP7-CD, USP7 10 μM, ligand 1 mM
Sequence of USP7-CD (Q93009 208-560): as above

USP7 = settings: read-out: IC50 of USP7 inhibition; no reference given; cited from earlier work

Structure (SMILES): CN(C)CCC[C@@]1(c2ccc(F)cc2)OCc2cc(C#N)ccc21 [Compound 11, Escitalopram]
- mRNA expression of proto-oncogenes (USP7, MDM2, c-Myc) [1]: significantly decreased
- IC50 (HCT116 cells): 227.6 ± 0.71 µM
- mRNA expression of tumor suppressor gene (p53) [2]: non-significantly
- Kd [3]: 1220 ± 1120 µM

Structure (SMILES): CC(C(=O)O)c1cccc(C(=O)c2ccccc2)c1 (stereo not shown) [Compound 3, Ketoprofen]
- Kd [3]: 620 ± 560 µM

Structure (SMILES): Nc1nnc(-c2cccc(Cl)c2Cl)c(N)n1 [Compound 9, Lamotrigine]
- inhibition of proliferation of cancerous cells (HCT116 cells): inactive
- Kd [3]: 1000 ± 560 µM

Structure (SMILES): O=C(O)Cc1ccccc1Nc1c(Cl)cccc1Cl [Compound 2, Diclofenac Sodium]
- Thermal Shift (Δtm) (USP7-CD): 2.40 °C
- Kd [3]: 760 ± 560 µM

Structure (SMILES): COc1ccnc(C[S+]([O-])c2nc3ccc(OC(F)F)cc3[nH]2)c1OC (stereo not shown) [Compound 10, Pantoprazole Sodium]
- mRNA expression of proto-oncogenes (USP7, MDM2, c-Myc) [1]: significantly decreased
- IC50 (HCT116 cells): 222 ± 0.29 µM
- Kd [3]: 870 ± 280 µM

Structure (SMILES): CC(CCc1ccccc1)NCC(O)c1ccc(O)c(C(N)=O)c1 (stereo not shown) [Compound 4, Labetalol Hydrochloride]
- Thermal Shift (Δtm) (USP7-CD): 3.95 °C
- Kd [3]: 910 ± 700 µM

Structure (SMILES): Clc1ccccc1CN1CCc2sccc2C1 [Compound 8, Ticlopidine Hydrochloride]
- inhibition of proliferation of cancerous cells (HCT116 cells): inactive
- Kd [3]: 1490 ± 1410 µM

Structure (SMILES): N#Cc1nc2c(nc1C#N)-c1ccc(Cl)cc1C2=O [HBX 41108]
- Thermal Shift (Δtm) (USP7-CD; listed as 12): 6.20 °C
- IC50 (USP7): 0.424 µM

Structure (SMILES): Nc1c(CC(=O)O)cccc1C(=O)c1ccc(Br)cc1 [Compound 1, Bromfenac Sodium]
- Kd [3]: 780 ± 530 µM

Structure (SMILES): CCN(CC)CC#CCOC(=O)C(O)(c1ccccc1)C1CCCCC1 (stereo not shown) [Compound 6, Oxybutynin HCl]
- mRNA expression of proto-oncogenes (USP7, MDM2, c-Myc) [1]: significantly decreased
- Kd [3]: 660 ± 460 µM

Structure (SMILES): CN1CCC(=C2c3ccccc3CC(=O)c3sccc32)CC1 [Compound 7, Ketotifen]
- mRNA expression of proto-oncogenes (USP7, MDM2, c-Myc) [1]: significantly decreased
- IC50 (HCT116 cells): 89 ± 1.55 µM
- mRNA expression of tumor suppressor gene (p53) [2]: non-significantly
- Kd [3]: 1100 ± 880 µM
